{
  "source": "patent US20070105181A1",
  "about": "“Identification of cancer biomarkers and phosphorylated pdroteins” (Invitrogen Corporation, priority 2005, published 2007)",
  "tested_on": "Dok-2 phosphorylation (tyrosine 299)",
  "assay": "SILAC/MALDI-TOF quantitation of Dok-2 phosphopeptide in CML cells after STI571 treatment",
  "format": "cell-based",
  "conditions": "human CML cells",
  "method": "SILAC is a also powerful tool for quantifying posttranslational modifications. We examined the change in the level of phosphophorylation of Dok-2 in response to treatment of STI571, an inhibitor of Bcr-Abl kinase, in human chronic myelogenous leukemia cells. As a control, aliquots of heavy tyrosine (U—^13C9) labeled cells (5×10^8) were mixed equally with light tyrosine (^12C) labeled cells (5×10^8) before the drug treatment.\nA first aliquot of heavy tyrosine labeled cells (5×10^8) was preincubated with 1 μM of STI571 at 37° C. for 1 h and then mixed with an equal number of light (natural abundance) isotope tyrosine labeled cells. A second aliquot of heavy tyrosine labeled cells (5×10^8) was preincubated with 1 μM of STI571 at 37° C. for 2 h and then also mixed with an equal number of light (natural abundance) isotope tyrosine labeled cells. In both cases, the cell mixtures (1×10^9) were lysed with NP40 lysis buffer and incubated with 30 μg of the GST fusion of the SH2 domain of SHIP1 conjugated to glutathione Sepharose 4B. Affinity captured proteins were then analyzed by SDS-PAGE on a NuPAGE® acrylamide gel (Invitrogen, Carlsbad, Calif.) and stained with SimplyBlue™ SafeStain™ protein gel stain (Invitrogen, Carlsbad, Calif.). The Dok-2 protein bands from each mixed cell sample were excised and digested with trypsin. The resulting tryptic peptides were analyzed by MALDI-TOF.",
  "data": [
    {"smiles": "Cc1ccc(NC(=O)c2ccc(CN3CCN(C)CC3)cc2)cc1Nc1nccc(-c2cccnc2)n1", "note": "[STI571]", "values": [
      {"measurement": "amount of phosphopeptide of Dok2 reduced to (peptide ratio m/z 1688 to m/z 1697)", "setting": "1 μM STI571, 37° C., 1 h", "result": 75, "unit": "%"},
      {"measurement": "inhibition of heavy labeled Dok-2 phosphopeptide (ratio of isotopic peptide pairs)", "setting": "1 μM STI571, 37° C., 2 h", "result": "more than 90%"},
      {"measurement": "decrease of phosphorylation level of Dok-2 Tyrosine 299 site", "setting": "STI571 treatment, 1 h", "result": 75, "unit": "%"}
    ]}
  ]
}
